Measurements as given in patent US20090289071A1, “Flow Through Components with an Antimicrobial Lining” (THE BOC GROUP, INC., priority 2004, published 2009).

Legend:
[1] = estimated; called medium value
[2] = not given; remark: listed apart in the source

- dissociation constant (pK) [1]: > 3.3
- solubility (variety of organic solvents, including solvents containing polymers): soluble in a variety of organic solvents
- light stability ([2]; as a solid): light stable
- photostability ([2]; present in a coating): not photostable
Compound: CCCCNC(=O)[N-]S(=O)(=O)c1ccc(C)cc1.[Ag+] [AgTol, silver tolbutamide]
- solubility compared with silver sulfadiazine (relative to silver sulfadiazine): considerably greater than that of silver sulfadiazine
